# Reference: patent US10028992B2, “Methods of treating muscular dystrophy” (BOARD OF REGENTS OF THE NEVADA SYSTEM OF HIGHER EDUCATION …, priority 2012, dated 2018)
# Test system: α7 integrin promoter
# Assay: muscle cell-based assay: α7βgal+/− myoblasts/myotubes, LacZ reporter, β-galactosidase cleavage of FDG
# Parameters: species or system mouse; Results in α7+/− β-galactosidase assay: scale not given here
# Settings: for Results in α7+/− β-galactosidase assay / Result in α7+/− β-galactosidase assay: Myoblasts; for Results in a α7+/− β-galactosidase assay, Myotubes, 0.5 uM: compound at 0.5 uM; for Results in a α7+/− β-galactosidase assay, Myotubes, 1 uM: compound at 1 uM; for Results in a α7+/− β-galactosidase assay, Myotubes, 5 uM: compound at 5 uM; for Results in a α7+/− β-galactosidase assay, Myotubes, 10 uM: compound at 10 uM; for Results in a α7+/− β-galactosidase assay, Myotubes, 20 uM: compound at 20 uM; for Results in a α7+/− β-galactosidase assay, Myotubes, 40 uM: compound at 40 uM; for AC50: log of AC50, given with negative sign, unit of AC50 not given, read-out: Fit Log AC50 (converted); for Fit Curve Class: key not given; for EC50: given as log AC50 (negative values), read-out: Fit LogAC50 (converted)
# Procedure, shortened: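 Fluorescein generated from FDG by β-galactosidase reports α7 integrin promoter activity in differentiated myoblasts from α7+/− LacZ knock-in pups. Screening hits then went to dose-response, western blotting and a myostatin counterscreen.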
# [1] = Table 12, fitted activity at zero concentration
# [2] = Table 12 Compound data, concentration-response curve fit
# [3] = curve fit, activity at zero concentration
structure (smiles),measurement,setting,value
CC(C)(C)NC(=O)NC(=O)CN1CCN(Cc2ccccc2)CC1 [drawing 632],Results in α7+/− β-galactosidase assay,0.5 uM,0.1233
same,Results in α7+/− β-galactosidase assay,1 uM,−0.06967
same,Results in α7+/− β-galactosidase assay,5 uM,−0.04648
same,Results in α7+/− β-galactosidase assay,10 uM,0.1725
same,Results in α7+/− β-galactosidase assay,20 uM,−0.02695
same,Results in α7+/− β-galactosidase assay,40 uM,−0.05859
CCN(CC)C(=O)c1sc2nc(-c3ccc(OC)cc3)cn2c1C [drawing 412],"Results in a α7+/− β-galactosidase assay, Myotubes, 0.5 uM",,0.08584
same,"Results in a α7+/− β-galactosidase assay, Myotubes, 1 uM",,0.05066
same,"Results in a α7+/− β-galactosidase assay, Myotubes, 5 uM",,0.1198
same,"Results in a α7+/− β-galactosidase assay, Myotubes, 10 uM",,−0.03387
same,"Results in a α7+/− β-galactosidase assay, Myotubes, 20 uM",,−0.01472
same,"Results in a α7+/− β-galactosidase assay, Myotubes, 40 uM",,−0.1357
Cc1cccn2c(=O)c3cc(C(=O)NC4CCCCC4)n(C)c3nc12 [Compound 40],AC50,"Mus musculus, Table 12",14.1 µM
same,Emax,"Mus musculus, read-out: Max Response [%]",427%
same,Fit HillSlope,"Table 12, curve fit",4.5045
same,Fit Zero Activity [%],[1],−3.212%
same,Fit Curve Class,Table 12,2.1
same,Score,[2],48
CC1CC(C)(C)N=C(S)N1CC(=O)N(C)Cc1ccccc1 (centres unmarked) [drawing 593],Results in α7+/− β-galactosidase assay,0.5 uM,−0.00967
same,Results in α7+/− β-galactosidase assay,1 uM,0.04937
same,Results in α7+/− β-galactosidase assay,5 uM,0.1163
same,Results in α7+/− β-galactosidase assay,10 uM,0.244
same,Results in α7+/− β-galactosidase assay,20 uM,0.03336
same,Results in α7+/− β-galactosidase assay,40 uM,0.02068
O=C(NCCc1ccc(Cl)cc1)C1CCCO1 (centres unmarked) [drawing 481],"Results in a α7+/− β-galactosidase assay, Myotubes, 0.5 uM",,0.008299
same,"Results in a α7+/− β-galactosidase assay, Myotubes, 1 uM",,−0.0666
same,"Results in a α7+/− β-galactosidase assay, Myotubes, 5 uM",,0.2373
same,"Results in a α7+/− β-galactosidase assay, Myotubes, 10 uM",,−0.07246
same,"Results in a α7+/− β-galactosidase assay, Myotubes, 20 uM",,−0.08414
same,"Results in a α7+/− β-galactosidase assay, Myotubes, 40 uM",,−0.169
N#Cc1ccc(OCC(O)CS(=O)(=O)c2ccccc2)cc1 (centres unmarked) [Compound 195],EC50,Mus musculus,10 µM
same,Score,Table 12 compound data,42
same,Fit Curve Class,curve class number,2.1
same,Fit HillSlope,curve fit,4.045
same,Fit Zero Activity [%],[3],−9.8792%
CN(C)CCNc1ncnc2sc(-c3ccccc3)cc12 [Compound 163],EC50,Mus musculus,10 µM
same,Score,Table 12 compound data,42
same,Fit Curve Class,curve class number,2.2
same,Fit HillSlope,curve fit,4.045
same,Fit Zero Activity [%],[3],−0.8551%
NC(=O)COc1ccc(C(=O)/C=C2\C(=O)Nc3ccccc32)cc1 [drawing 379],"Results in a α7+/− β-galactosidase assay, Myotubes, 0.5 uM",,0.04116
same,"Results in a α7+/− β-galactosidase assay, Myotubes, 1 uM",,0.06227
same,"Results in a α7+/− β-galactosidase assay, Myotubes, 5 uM",,0.08579
same,"Results in a α7+/− β-galactosidase assay, Myotubes, 10 uM",,−0.1303
same,"Results in a α7+/− β-galactosidase assay, Myotubes, 20 uM",,−0.2553
same,"Results in a α7+/− β-galactosidase assay, Myotubes, 40 uM",,−0.6822
Cc1ccccc1/C=C1\C(=O)Nc2ccc(F)cc21 [drawing 456],"Results in a α7+/− β-galactosidase assay, Myotubes, 0.5 uM",,0.008769
same,"Results in a α7+/− β-galactosidase assay, Myotubes, 1 uM",,−0.01895
same,"Results in a α7+/− β-galactosidase assay, Myotubes, 5 uM",,−0.02208
same,"Results in a α7+/− β-galactosidase assay, Myotubes, 10 uM",,0.1345
same,"Results in a α7+/− β-galactosidase assay, Myotubes, 20 uM",,−0.1202
same,"Results in a α7+/− β-galactosidase assay, Myotubes, 40 uM",,0.009496
COc1ccccc1C(=O)Nc1ccnn1C1CCN(C(=O)c2ccoc2)CC1 [drawing 343],"Results in a α7+/− β-galactosidase assay, Myotubes, 0.5 uM",,0.01341
same,"Results in a α7+/− β-galactosidase assay, Myotubes, 1 uM",,−0.07814
same,"Results in a α7+/− β-galactosidase assay, Myotubes, 5 uM",,0.06946
same,"Results in a α7+/− β-galactosidase assay, Myotubes, 10 uM",,0.05194
same,"Results in a α7+/− β-galactosidase assay, Myotubes, 20 uM",,−0.08844
same,"Results in a α7+/− β-galactosidase assay, Myotubes, 40 uM",,−0.04958
O=C1Nc2ccccc2/C1=C1/Nc2ccccc2/C1=N\O [drawing 722],Result in α7+/− β-galactosidase assay,0.5 uM,0.1752
same,Result in α7+/− β-galactosidase assay,1 uM,0.3255
same,Result in α7+/− β-galactosidase assay,5 uM,−0.404
same,Result in α7+/− β-galactosidase assay,10 uM,−0.681
same,Result in α7+/− β-galactosidase assay,20 uM,−0.6914
same,Result in α7+/− β-galactosidase assay,40 uM,−0.8176
Cc1ccccc1NC(=O)NCCCN1CCN(C)CC1 [drawing 537],Results in α7+/− β-galactosidase assay,0.5 uM,0.06224
same,Results in α7+/− β-galactosidase assay,1 uM,0.06912
same,Results in α7+/− β-galactosidase assay,5 uM,0.01544
same,Results in α7+/− β-galactosidase assay,10 uM,−0.04766
same,Results in α7+/− β-galactosidase assay,20 uM,0.09447
same,Results in α7+/− β-galactosidase assay,40 uM,0.1887
Cc1[nH]c2ccc(F)cc2c1CCN(Cc1ccco1)/C(S)=N/C(C)(C)C [drawing 431],"Results in a α7+/− β-galactosidase assay, Myotubes, 0.5 uM",,−0.02866
same,"Results in a α7+/− β-galactosidase assay, Myotubes, 1 uM",,−0.1703
same,"Results in a α7+/− β-galactosidase assay, Myotubes, 5 uM",,−0.1851
same,"Results in a α7+/− β-galactosidase assay, Myotubes, 10 uM",,−0.06955
same,"Results in a α7+/− β-galactosidase assay, Myotubes, 20 uM",,−0.543
same,"Results in a α7+/− β-galactosidase assay, Myotubes, 40 uM",,−0.807
COc1ccc(CN2CCNC(=O)C2CC(=O)NCCc2c[nH]c3ccccc23)c(OC)c1 (centres unmarked) [drawing 484],"Results in a α7+/− β-galactosidase assay, Myotubes, 0.5 uM",,−0.059
same,"Results in a α7+/− β-galactosidase assay, Myotubes, 1 uM",,−0.1025
same,"Results in a α7+/− β-galactosidase assay, Myotubes, 5 uM",,0.1466
same,"Results in a α7+/− β-galactosidase assay, Myotubes, 10 uM",,−0.2654
same,"Results in a α7+/− β-galactosidase assay, Myotubes, 20 uM",,−0.1345
same,"Results in a α7+/− β-galactosidase assay, Myotubes, 40 uM",,−0.1806
CC1Cc2ccccc2N1C(=O)CSc1nnc(N)s1 (centres unmarked) [drawing 631],Results in α7+/− β-galactosidase assay,0.5 uM,0.1058
same,Results in α7+/− β-galactosidase assay,1 uM,−0.02327
same,Results in α7+/− β-galactosidase assay,5 uM,0.003792
same,Results in α7+/− β-galactosidase assay,10 uM,0.1155
same,Results in α7+/− β-galactosidase assay,20 uM,−0.02505
same,Results in α7+/− β-galactosidase assay,40 uM,−0.07326
CC(C)c1ccc(OC(=O)c2cccc(S(=O)(=O)N3CCN(C)CC3)c2)cc1 [drawing 398],"Results in a α7+/− β-galactosidase assay, Myotubes, 0.5 uM",,−0.02436
same,"Results in a α7+/− β-galactosidase assay, Myotubes, 1 uM",,0.01638
same,"Results in a α7+/− β-galactosidase assay, Myotubes, 5 uM",,−0.2473
same,"Results in a α7+/− β-galactosidase assay, Myotubes, 10 uM",,0.3054
same,"Results in a α7+/− β-galactosidase assay, Myotubes, 20 uM",,−0.1863
same,"Results in a α7+/− β-galactosidase assay, Myotubes, 40 uM",,−0.2246
Cc1ccc(-c2csc(Nc3ccc(C(=O)O)cc3)[n+]2Cc2ccccc2)cc1.[Br-] [Compound 126],EC50,Mus musculus,8.91 µM
same,Score,Table 12 compound data,43
same,Fit Curve Class,curve class number,2.1
same,Fit HillSlope,curve fit,1
same,Fit Zero Activity [%],[3],0.673%
CNc1cc([N+](=O)[O-])ccc1OCc1ccccc1 [Compound 79],AC50,"Mus musculus, Table 12",4.47 µM
same,Fit HillSlope,"Table 12, curve fit",1.3437
same,Fit Zero Activity [%],[1],−0.3646%
same,Fit Curve Class,Table 12,2.1
same,Score,[2],44
COC(=O)C(=O)C/C(=N/Nc1ncnc2ccccc12)c1ccc(Cl)cc1 [Compound 18],Activity at 38.30 μM [%] **,38.30 μM,1767.43%
same,AC50,"Mus musculus, Table 12",10 µM
same,Fit HillSlope,"Table 12, curve fit",4.9549
same,Fit Infinite Activity [%],"Table 12, fitted activity at infinite concentration",1760.36%
same,Fit Zero Activity [%],[1],8.7984%
same,Fit Curve Class,Table 12,2.1
same,Score,[2],84
CC(=O)Nc1ccc(-n2c(C)nc(=O)c(-c3ccccc3)c2C)cc1 [drawing 668],Results in α7+/− β-galactosidase assay,0.5 uM,0.06264
same,Results in α7+/− β-galactosidase assay,1 uM,−0.004
same,Results in α7+/− β-galactosidase assay,5 uM,−0.1843
same,Results in α7+/− β-galactosidase assay,10 uM,−0.1948
same,Results in α7+/− β-galactosidase assay,20 uM,−0.4829
same,Results in α7+/− β-galactosidase assay,40 uM,−0.7384
CN1C(=O)/C(=C(/C#N)c2nc3ccccc3[nH]2)c2ccccc21 [drawing 384],"Results in a α7+/− β-galactosidase assay, Myotubes, 0.5 uM",,−0.07617
same,"Results in a α7+/− β-galactosidase assay, Myotubes, 1 uM",,−0.02413
same,"Results in a α7+/− β-galactosidase assay, Myotubes, 5 uM",,−0.1571
same,"Results in a α7+/− β-galactosidase assay, Myotubes, 10 uM",,0.1257
same,"Results in a α7+/− β-galactosidase assay, Myotubes, 20 uM",,−0.2111
same,"Results in a α7+/− β-galactosidase assay, Myotubes, 40 uM",,−0.2699
Cc1ccc(NC(=O)C2CCCCC2C(=O)O)cc1C (centres unmarked) [Compound 114],AC50,"Mus musculus, Table 12",11.2 µM
same,Fit HillSlope,"Table 12, curve fit",4.5045
same,Fit Zero Activity [%],[1],−3.8223%
same,Fit Curve Class,Table 12,2.1
same,Score,[2],43
